Source: patent publication US20170007615A1, “Antibacterial Compounds” (priority 2014, published 2017)
≈ marks a conversion by molar mass, not a printed value. Like-named read-outs stand apart in the source and are kept apart here.

Assays:
[1] = test system: A. baumannii drug resistant clinical isolates; assay: Antibacterial activity (MIC) against drug resistant clinical isolates, alone and with PMBN; format: cell-based; conditions: for MIC: Acinetobacter baumannii, read-out: MIC Compound alone
[2] = test system: E. cloaceae drug resistant clinical isolates; assay: as above; format: cell-based; conditions: for MIC: read-out: MIC Compound alone
[3] = test system: S. aureus (ATCC 29213); assay: Antibacterial activity (MIC), Gram-positive type strain; format: cell-based, Staphylococcus aureus; conditions: Staphylococcus aureus, ATCC29213; Table 13
[4] = test system: E. faecalis (ATCC 29212); assay: as above; format: cell-based, Enteroccocus faecalis; conditions: Enterococcus faecalis, ATCC29212; Table 13
[5] = test system: H. influenzae (ATCC 49247); assay: Antibacterial activity (MIC), Gram-negative type strain; format: cell-based, Haemophilus influenzae; conditions: Haemophilus influenzae, ATCC49247; Table 13
[6] = test system: N. gonorrheae (ATCC 49226); assay: as above; format: cell-based, Neisseria gonorrhoeae; conditions: Neisseria gonorrhoeae, ATCC49226; Table 13
[7] = test system: E. coli (ATCC 25922)
[8] = test system: A. baumannii (ATCC 19606); conditions: Table 4
[9] = test system: P. aeruginosa (ATCC 27853); conditions: Table 5
[10] = test system: E. cloaceae (ATCC 13047); conditions: Table 6
[11] = test system: E. coli (ATCC 25922); assay: microbe, parasite or virus in culture; conditions: Escherichia coli
[12] = test system: A. baumannii (ATCC 19606); assay: microbe, parasite or virus in culture; conditions: Acinetobacter baumannii, ATCC19606, read-out: MIC Compound alone
[13] = test system: P. aeruginosa (ATCC 27853); assay: microbe, parasite or virus in culture; conditions: Pseudomonas aeruginosa, ATCC27853, read-out: MIC Compound alone
[14] = test system: E. cloaceae (ATCC 13047); assay: microbe, parasite or virus in culture; conditions: Enterobacter cloacae, ATCC13047, read-out: MIC Compound alone

With `CCNC(=O)Nc1nc2cc(-c3cnc(NS(=O)(=O)C(C)(C)C)nc3)cc(-c3ccc(C)cn3)c2s1` [Compound A-13, 1-[5-[2-(tert-Butylsulfonylamino)pyrimidin-5-yl]-7-(5-methyl-2-pyridyl)-1,3-benzothiazol-2-yl]-3-ethyl-urea] the “MIC of Compound (μg/ml) in the presence of PMBN (128 μg/ml)” value (“MIC of Compound (μg/ml) … (128 μg/ml)” for short) ([1]; A. baumannii (MMX 4454)) was 0.12 µg/mL, the “MIC of Compound (μg/ml) … (128 μg/ml)” value ([1]; A. baumannii (MMX 6331)) was 0.06 µg/mL and the “MIC of Compound (μg/ml) … (128 μg/ml)” value ([1]; A. baumannii (NCTC13301)) was 0.12 µg/mL. For the same compound, the “MIC of Compound (μg/ml) … (128 μg/ml)” value ([1]; A. baumannii (NCTC13302)) was 0.03 µg/mL, the “MIC of Compound (μg/ml) … (128 μg/ml)” value ([1]; A. baumannii (NCTC13303)) was 0.06 µg/mL and the “MIC of Compound (μg/ml) … (128 μg/ml)” value ([1]; A. baumannii (NCTC13304)) was 0.03 µg/mL. For the same compound, the “MIC of Compound (μg/ml) … (128 μg/ml)” value ([1]; A. baumannii (NCTC13305)) was 0.12 µg/mL, the “MIC of Compound (μg/ml) … (128 μg/ml)” value ([1]; A. baumannii (NCTC 13420)) was 0.03 µg/mL and the “MIC of Compound (μg/ml) … (128 μg/ml)” value ([1]; A. baumannii (NCTC13421)) was 0.03 µg/mL. For the same compound, the “MIC of Compound (μg/ml) … (128 μg/ml)” value ([1]; A. baumannii (NCTC13422)) was 0.03 µg/mL, the “MIC of Compound (μg/ml) … (128 μg/ml)” value ([1]; A. baumannii (NCTC13424)) was 0.03 µg/mL and the MIC ([1]; A. baumannii (MMX 2585)) was 4 µg/mL (≈ 7.61 µM). For the same compound, the MIC ([1]; A. baumannii (MMX 2598)) was 2 µg/mL (≈ 3.8 µM), the MIC ([1]; A. baumannii (MMX 2600)) was 2 µg/mL (≈ 3.8 µM) and the MIC ([1]; A. baumannii (MMX 4405)) was 4 µg/mL (≈ 7.61 µM). It also gave an MIC ([1]; A. baumannii (MMX 4454)) of 1 µg/mL (≈ 1.9 µM), an MIC ([1]; A. baumannii (MMX 6331)) of 4 µg/mL (≈ 7.61 µM) and an MIC ([1]; NCTC13301, A. baumannii (NCTC13301)) of 4 µg/mL (≈ 7.61 µM). The MIC ([1]; NCTC13302, A. baumannii (NCTC13302)) was 1 µg/mL (≈ 1.9 µM), the MIC ([1]; NCTC13303, A. baumannii (NCTC13303)) was 2 µg/mL (≈ 3.8 µM) and the MIC ([1]; NCTC13304, A. baumannii (NCTC13304)) was 1 µg/mL (≈ 1.9 µM). It also gave an MIC ([1]; NCTC13305, A. baumannii (NCTC13305)) of 2 µg/mL (≈ 3.8 µM), an MIC ([1]; NCTC13420, A. baumannii (NCTC 13420)) of 1 µg/mL (≈ 1.9 µM) and an MIC ([1]; NCTC13421, A. baumannii (NCTC13421)) of 2 µg/mL (≈ 3.8 µM). The MIC ([1]; NCTC13422, A. baumannii (NCTC13422)) was 4 µg/mL (≈ 7.61 µM), the MIC ([1]; NCTC13424, A. baumannii (NCTC13424)) was 1 µg/mL (≈ 1.9 µM) and the “MIC of Compound (μg/ml) … (128 μg/ml)” value ([2]; E. cloaceae (MMX 6087)) was 0.25 µg/mL. For the same compound, the MIC ([2]; E. cloaceae (MMX 6087)) was greater than 64 µg/mL, the “MIC of Compound (μg/ml) … (128 μg/ml)” value ([2]; E. cloaceae (MMX 6093)) was 0.12 µg/mL and the MIC ([2]; E. cloaceae (MMX 6093)) was 8 µg/mL (≈ 15.2 µM). For the same compound, the “MIC of Compound (μg/ml) … (128 μg/ml)” value ([2]; E. cloaceae (MMX 6095)) was 1 µg/mL, the MIC ([2]; E. cloaceae (MMX 6095)) was greater than 64 µg/mL and the “MIC of Compound (μg/ml) … (128 μg/ml)” value ([2]; E. cloaceae (MMX 6304)) was 0.25 µg/mL. It also gave an MIC ([2]; E. cloaceae (MMX 6304)) greater than 16 µg/mL, an MIC [3] of no more than 0.008 µg/mL and an MIC [4] of no more than 0.008 µg/mL. The MIC [5] was 0.015 µg/mL (≈ 0.0285 µM), the MIC [6] was no more than 0.008 µg/mL and the “MIC of Compound (μg/ml) … (128 μg/ml)” value ([7]; Table 1, (b) No effect) was 0.008 µg/mL. For the same compound, the “MIC of Compound (μg/ml) in the presence of Colistin (1 μg/ml)” value ([7]; Table 2, colistin sub-inhibitory) was 0.25 µg/mL, the “MIC of Compound (μg/ml) in the presence of PMB (0.5 μg/ml)” value ([7]; Table 3, PMB sub-inhibitory) was 0.12 µg/mL and the “MIC of Compound (μg/ml) … (128 μg/ml)” value [8] was 0.03 µg/mL. For the same compound, the “MIC of Compound (μg/ml) … (128 μg/ml)” value [9] was “<=0.008 μg/ml”, the “MIC of Compound (μg/ml) … (128 μg/ml)” value [10] was 0.25 µg/mL and the MIC ([11]; ATCC25922, read-out: MIC Compound alone, Table 1) was 1 µg/mL (≈ 1.9 µM). It also gave an MIC ([11]; ATCC25922, read-out: MIC Compound alone, Table 2) of 1 µg/mL (≈ 1.9 µM), an MIC ([11]; ATCC25922, read-out: MIC Compound alone, Table 3) of 1 µg/mL (≈ 1.9 µM) and an MIC [12] of 1 µg/mL (≈ 1.9 µM). It also gave an MIC [13] of 4 µg/mL (≈ 7.61 µM) and an MIC [14] greater than 64 µg/mL.
